Measurements from article PMC10302127 (Medicina, 2023).
In brackets after ≈: the same amount, converted by molar mass.

Legend:
[1] = test system: five bacterial pathogens; assay: Antibacterial disc diffusion, statements on groups of bacteria; type: cell-based
Procedure: (§1) The antibacterial activity of the synthesized compound was evaluated using the disc diffusion method in accordance with the clinical and laboratory standards institute’s recommendations. Molten Mueller–Hinton agar and Sabouraud dextrose agar media were inoculated with the inoculum at 35 ± 2 °C and then poured into a Petri dish (90 mm). Each sample was soaked on 6 mm absorbent discs in dimethyl sulfoxide (DMSO) and placed on the inoculation plates. After 2 h at 4 °C, the plates were incubated at 35 ± 2 °C for 18–20 h. The inhibition zone diameters were determined. Positive control discs of selected antibiotics were included in each assay; inhibition zones were compared to the reference discs. Negative controls were treated with DMSO, and the assays were performed in triplicate.

[2] = test system: brine shrimp nauplii; assay: Brine shrimp lethality bioassay; conditions: 24 and 48 h
Procedure: Vials A, B, C, and D contained 4, 8, 16, and 32 μL of material. Each vial received 10 brine shrimp nauplii at […]. Ten nauplii in 5 mL saltwater were used for a control test. The vials were incubated at room temperature for 24–48 h. After incubation, the vials were magnified and counted to determine how many survived. Each concentration has an average nauplii mortality rate.

[3] = test system: S. typhi; assay: Antibacterial disc diffusion; type: cell-based, Salmonella typhi; conditions: S. typhi (G − ve)
Procedure: as §1

[4] = test system: P. aeruginosa; assay: MIC and MBC microdilution; conditions: Pseudomonas aeruginosa
Procedure: (§3) Microdilution techniques were employed to calculate the minimum inhibitory concentration (MIC) and the minimum bactericidal concentration (MBC). […] After solidification, the medium incorporated was seeded from suspensions of bacteria at a concentration of 0.5 McFarland standard (1.0 × 10^8 CFU/mL). After 18–20 h of incubation at 35 ± 2 °C, the absence or presence of microbial growth in Petri dishes was determined by examination with the naked eye. […] All compounds were evaluated three times against each microorganism.

[5] = test system: Aspergillus flavus; assay: Mycelial growth inhibition, poisoned food method; type: cell-based; conditions: 20 μg/μL in DMSO
Procedure: (§2) The potato dextrose agar (PDA)-based antifungal experiment was screened using the food poisoning approach. Sterilized 70 mm glass Petri dishes were filled with 20 mL melted PDA (45 °C). After the medium solidified, sterilized needles placed small amounts of mycelia from the two fungal pathogens in the center of each plate. […] After 48 h at 37 °C, mycelial growth was measured.

[6] = test system: B. subtilis; assay: MIC and MBC microdilution; conditions: Bacillus subtilis
Procedure: as §3

[7] = test system: S. aureus; assay: Antibacterial disc diffusion; type: cell-based; conditions: S. aureus (G + ve) in Table 2, disc diffusion
Procedure: as §1

[8] = test system: Bacillus cereus; assay: Antibacterial disc diffusion; type: cell-based; conditions: as named in text
Procedure: as §1

[9] = test system: S.typhi; assay: MIC and MBC microdilution; conditions: Salmonella enterica
Procedure: as §3

[10] = test system: E. coli; assay: MIC and MBC microdilution; conditions: Escherichia coli
Procedure: as §3

[11] = test system: P. aeruginosa; assay: Antibacterial disc diffusion; type: cell-based, Pseudomonas aeruginosa; conditions: P. aeruginosa (G − ve)
Procedure: as §1

[12] = test system: B. cereus; assay: MIC and MBC microdilution; conditions: Bacillus cereus
Procedure: as §3

[13] = test system: EAC (Ehrlich ascites carcinoma) cells; assay: MTT assay, antiproliferative activity; type: cell-based, Swiss albino mouse
Procedure: Ehrlich ascites carcinoma (EAC) cells were cultivated in conventional DMEM from a Swiss albino mouse bearing a tumor [45]. A 96-well flat-bottomed cell culture plate with 2 × 10^4 cells in 100 μL was incubated at 37 °C in a CO2 incubator for 24 h. Controls were three wells of untreated EAC cells in DMEM. […] After removing the aliquot, 10 mM PBS and 20 μL of MTT reagent (5 mg/mL MTT in PBS) were added. After another 8 h at 37 °C, the aliquot was drained, and acidic isopropanol (200 μL) was added. Absorbance values at 570 nm were recorded after another 30 min CO2 incubator incubation. The following formula was used to estimate cell proliferation incubation:Proliferation inhibition ratio (%) = (A − B) × 100/A where A and B represent the cellular homogenate OD570 nm from control wells and compound 6-treated wells, respectively.

[14] = test system: Aspergillus niger; assay: Mycelial growth inhibition, poisoned food method; type: cell-based; conditions: for Millimeters of Fungal Mycelial Growth Inhibition in DMSO (20 μg/μL): Aspergillus niger, 20 μg/μL in DMSO
Procedure: as §2

[15] = test system: B. subtilis; assay: Antibacterial disc diffusion; type: cell-based, Bacillus subtilis; conditions: B. subtilis (G + ve)
Procedure: as §1

[16] = test system: E. coli; assay: Antibacterial disc diffusion; type: cell-based, Escherichia coli; conditions: E. coli (G − ve)
Procedure: as §1

Structure (SMILES)	activity against Gram-positive organisms [1]	inhibition among all bacterial types [1]	death (brine shrimp mortality) [2]	Diameter of Inhibition Zones [3]	inhibition against the Gram-negative bacteria P. aeruginosa and S. typhi [1]	Millimeters of Fungal Mycelial Growth Inhibition in DMSO (20 μg/μL) [5]	Diameter of Inhibition Zones [7]	inhibition of A. niger [14]	Millimeters of Fungal Mycelial Growth Inhibition in DMSO (20 μg/μL) [14]	also measured
O=c1ccn([C@@H]2O[C@H](CO)[C@@H](O)[C@H]2O)c(=O)[nH]1 [Compound 1, uridine, reference compound]	inactive	no inhibition								
CCCCCCCCCCCCCCCC(=O)OC[C@H]1O[C@@H](n2ccc(=O)[nH]c2=O)[C@H](O)[C@@H]1O [Compound 2, 5′-Oxo-palmitoyluridine]	inactive	no inhibition	31.21%							
CCCCCCCCCCCCCCCC(=O)OCC1OC(n2ccc(=O)[nH]c2=O)C(OC(=O)CCCCCCCCCCC)C1OC(=O)CCCCCCCCCCC (centres unmarked) [Compound 3, 2′,3′-Di-oxo-lauroyl-5′-oxo-palmitoyluridine]	inactive		48.24–49.28%	* 11.0 ± 0.0 mm	reasonable inhibition					
CCCCCCCCCCCCCCCC(=O)OCC1OC(n2ccc(=O)[nH]c2=O)C(OC(=O)CCCCCCCCCCCCC)C1OC(=O)CCCCCCCCCCCCC (centres unmarked) [Compound 4, 2′,3′-Di-oxo-myristoyl-5′-oxo-palmitoyluridine]			48.24–49.28%		reasonable inhibition	31 ± 0.15 Millimeters	* 15 ± 0.50 mm			MBC [4]: 16 mg/L (≈ 17.7 µM); MIC [4]: 0.5 mg/L (≈ 0.554 µM); MBC [6]: 8 mg/L (≈ 8.86 µM); MIC [6]: 4 mg/L (≈ 4.43 µM); inhibition zone [8]: 15 ± 0.50 mm; MBC [9]: 16 mg/L (≈ 17.7 µM); MIC [9]: 0.5 mg/L (≈ 0.554 µM); MIC [10]: 0.5 mg/L (≈ 0.554 µM); Diameter of Inhibition Zones [11]: 7 ± 0.25 mm; MIC [12]: 0.13 mg/L (≈ 0.144 µM)
CCCCCCCCCCCCCCCC(=O)OC[C@H]1O[C@@H](n2ccc(=O)[nH]c2=O)[C@H](OC(=O)C=Cc2ccccc2)[C@@H]1OC(=O)C=Cc1ccccc1 [Compound 6, 2′,3′-Di-oxo-cinnamoyl-5′-oxo-palmitoyluridine]	inactive	no inhibition				53 ± 0.33 Millimeters		72 ± 0.95%	* 72 ± 0.95 Millimeters	cytotoxicity effects ([13]; 15.625 µg/mL): 3.11%; cytotoxicity effects ([13]; 31.25 µg/mL): 4.41%; cytotoxicity effects ([13]; 62.25 µg/mL (62.5 in Figure 5)): 5.41%; cytotoxicity effects ([13]; 125 µg/mL): 7.51%; cytotoxicity effects ([13]; 250 µg/mL): 14.02%; cytotoxicity effects ([13]; 500 µg/mL): 23.22%; IC50 ([13]; Mus musculus, Ehrlich, MTT): > 500 mg/L
CCCCCCCCCCCCCCCC(=O)OC[C@H]1O[C@@H](n2ccc(=O)[nH]c2=O)[C@H](OC(=O)c2ccc(C(C)(C)C)cc2)[C@@H]1OC(=O)c1ccc(C(C)(C)C)cc1 [Compound 7, 2′,3′-Di-oxo-(4-t-butylbenzoyl)-5′-oxo-palmitoyluridine]	inactive		33.71%	9 ± 0.00 mm	reasonable inhibition	* 63 ± 0.10 Millimeters		66 ± 0.41%	* 66 ± 0.41 Millimeters	
CCCCCCCCCCCCCCCC(=O)OCC1OC(n2ccc(=O)[nH]c2=O)C(OC(c2ccccc2)(c2ccccc2)c2ccccc2)C1OC(c1ccccc1)(c1ccccc1)c1ccccc1 (centres unmarked) [Compound 5, 5′-oxo-Palmitoyl-2′,3′-di-oxo-trityluridine]			34.25%	* 12 ± 0.25 mm		* 66 ± 0.39 Millimeters	* 16 ± 0.20 mm	64 ± 0.44%	* 64 ± 0.44 Millimeters	MBC [6]: 8 mg/L (≈ 8.27 µM); MIC [6]: 0.5 mg/L (≈ 0.517 µM); inhibition zone [8]: 16 ± 0.20 mm; MBC [9]: 8 mg/L (≈ 8.27 µM); MIC [9]: 0.5 mg/L (≈ 0.517 µM); MIC [10]: 4 mg/L (≈ 4.14 µM); MBC ([10]; E. coli): 8 mg/L (≈ 8.27 µM); MIC [12]: 1 mg/L (≈ 1.03 µM); MBC ([12]; B. cereus): 16 mg/L (≈ 16.5 µM)
CC[C@H]1OC(=O)[C@H](C)[C@@H](O[C@H]2C[C@@](C)(OC)[C@@H](O)[C@H](C)O2)[C@H](C)[C@@H](O[C@@H]2O[C@H](C)C[C@H](N(C)C)[C@H]2O)[C@](C)(O)C[C@@H](C)CN(C)[C@H](C)[C@@H](O)[C@]1(C)O [Azithromycin, reference compound]				** 18 ± 0.90 mm			** 17 ± 0.50 mm			Diameter of Inhibition Zones [15]: ** 18 ± 0.10 mm; Diameter of Inhibition Zones [16]: ** 17 ± 0.50 mm; Diameter of Inhibition Zones [11]: ** 15 ± 0.10 mm
C[C@@H]1[C@H](O)[C@@H](C)/C=C/C=C/CC/C=C/C=C/C=C/C=C/C(O[C@H]2O[C@H](C)[C@@H](O)[C@H](N)[C@@H]2O)CC2O[C@](O)(CC(O)C(O)CCC(O)CC(O)CC(O)CC(=O)O[C@H]1C)CC(O)C2C(=O)O (some centres unmarked) [Nystatin, reference compound]						61 ± 0.00 Millimeters		59 ± 0.00%	59 ± 0.00 Millimeters	
